Results reported in patent publication US10550094B2, “Compounds having antioxidant activity against free radicals and anti-inflammatory activity, and corresponding pharmaceutical or cosmetic compositions for skin care” (GIULIANI S.P.A., priority 2015, dated 2020).

Test system: human keratinocytes NCTC2544
Experiment: MTT assay with induced oxidative stress (H2O2)
Type: cell-based
Conditions: 16 h pretreatment, then 1 mM H2O2, NCTC2544
Procedure: The immortalized line of human keratinocytes NCTC2544 is used (Perry V. P. et al., 1957), cultured in sterile flasks ([…]), incubated at 37° C. in a humid atmosphere at 5% CO2 in RPMI culture medium added with bovine fetal serum (FBS), 2 mm glutamine, 1% non-essential amino acids, in the presence of 1% penicillin and streptomycin. The 1:3 split is done every 2 days upon achieving the monolayer by washing with 1×PBS (phosphate buffer without Ca^2+ and Mg^2+) and detachment of cells with a trypsin-EDTA solution at 37° C. for 2 minutes. The cells were kept in culture in 25 cm^3 sterile flasks and incubated at 37° C. in a humid atmosphere at 5% CO2.
(§1) Negative control: untreated cells in RPMI medium added to 2.5% fetal bovine serum (FBS), 1% non-essential amino acids (NEAA), 1% of a penicillin and streptomycin mixture (Pen-Strep Mix), and kept in (96 well) 25 cm^2 culture plates at 37° C. and 5% CO2 (in the dark).
as §1, with “Positive” for “Negative”, “control:” for “control: untreated”, “cells treated for 2 h with 1 mM hydrogen peroxide” for “cells”
MTT with Induced Oxidative Stress-NCTC 2544
Through this method it is possible to study the protective effects of such compounds on cells then subjected to oxidative stress. The induction of oxidative stress is carried out by incubation with hydrogen peroxide, an agent inducing the production of oxidative damage in cells through the formation of ROS. Any protective effects can be determined through the evaluation of the cell viability post oxidative stress of cells pretreated/pre-exposed to the active compounds to be tested, compared to cells subjected to the same oxidative stress. A greater cell viability will correspond to a protective effect of the compounds tested.
The assay was conducted in accordance with the method described by Coda and collaborators (Coda et al., 2012), with some changes. Human keratinocytes NCTC2544 were seeded in a 96-well plate at the density of 5*10^4 cells/well and incubated at 37° C. until reaching about 80% confluence.
Then, the cells were incubated for 16 hours with the active compounds to be tested and the respective controls at the following concentrations: 13.5 μM and 27 μM. The dilutions were prepared starting from 1000× stock in DMSO, sterile-filtered and using RPMI medium added to 2.5% fetal bovine serum (FBS), 1% non-essential amino acids (NEAA), 1% of a penicillin and streptomycin mixture (Pen-Strep Mix). Cells treated with H2O2 1 mM were used as a positive control; cells kept in culture medium alone (RPMI 2.5% FCS) were used instead as a negative control. After 16 hours of pretreatment, the cells were washed with PBS 1× and incubated for 90 minutes with a […] H2O2 solution (Sigma-Aldrich, St. Louis, Mo., USA) in serum-free medium, in the dark, at 37° C. and 5% CO2.
After the step of induction of the oxidative stress, the cell viability of the samples of the above compounds of the invention was evaluated in accordance with the method described by Mosmann T. Rapid colorimetric assay for cellular growth and survival: application to proliferation and cytotoxicity assays. J Immunol Methods. 1983 Dec. 16; 65(1-2):55-63.
The data were expressed as percentage of cell viability compared with control cells (ctr) not stressed, according to the following formula: % cell viability/ctr=(Abs sample/Abs ctr)·100
All the assays were performed at least two times in duplicate.

| SMILES | % protection (13.5 μM) [%] | % protection (27 μM) [%] | % protection (27 μM, listed as tetracetyl sorbityl furfural) | % protection (13.5 μM, listed as xylitil furfural) |
| --- | --- | --- | --- | --- |
| OCC(O)C1OC(c2ccccc2)OC(CO)C1O (stereo not drawn) [Sorbityl benzal, sorbityl benzal] | 11.673 | 20.439 |  |  |
| COc1cc(C2OC(CO)C(O)C(C(O)CO)O2)ccc1O (stereo not drawn) [Sorbityl vanillinal, sorbityl vanillinal] | 11.320 | 22.766 |  |  |
| O=C(OCC1OC(c2ccco2)OC(C(COC(=O)c2ccccc2)OC(=O)c2ccccc2)C1OC(=O)c1ccccc1)c1ccccc1 (stereo not drawn) [Tetrabenzoyl sorbityl furfural, tetrabenzoyl sorbityl furfural] | 36.035 | 8.725 |  |  |
| CC(=O)OCC1OC(c2ccco2)OC(C(COC(C)=O)OC(C)=O)C1OC(C)=O (stereo not drawn) [Tetracetyl sorbityl furfural, tetracetyl sorbityl furfural] | 34.385 | 49.201 | remarkable |  |
| OCC1OC(c2ccco2)OC(CO)C1O (stereo not drawn) [Xylitil furfural, xylitil furfural] | 59.554 | 33.651 |  | remarkable |
